Test results from patent US11028090B2 (Dong Wha Pharm. Co., Ltd., priority 2017, dated 2021).
Read-outs that look alike come from different tables or passages of the source.

Legend:
[1] = target: BRD4 (BD1+BD2) bromodomain (Homo sapiens (Human), UniProt O60885); test: BRD4 binding inhibition (AlphaScreen, GST-BRD4 vs tetraacetylated histone H4 peptide)
Procedure, shortened: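 AlphaScreen read after 30 min dark incubation at room temperature with glutathione acceptor/streptavidin donor beads (10 μg/ml each). The beads were added to compound plus 100 nM biotin-H4 (K5,8,12,16-acetyl) peptide and 100 nM GST-BRD4 BD1+BD2 in pH 7.4 HEPES/Tween/BSA/DTT buffer.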

[2] = tested on: acute myelogenous leukemia cells (MV-4-11 cells); test: Cytotoxicity to acute myelogenous leukemia cells (MV-4-11 cells), CCK-8; details: Homo sapiens, MV4-11, 72 h
[3] = tested on: thymus cancer cells (Ty-82 cells); test: Cytotoxicity to thymus cancer cells (Ty-82 cells), WST-1; details: Homo sapiens, TY82, 72 h
Method: The following experiment was performed to evaluate the cytotoxicity of [1,2,4]triazolo[4,3-a]quinoxaline derivative according to the present invention to thymus cancer cells (Ty-82 cells).
First, thymus cancer cells (Ty-82 cells) were distributed in a 96 well plate at the density of 2.5×10^4 cells/well. 24 hours later, the plated cells were treated with the compounds of the present invention dissolved in DMSO at the different concentrations ranging from 0.01 μM to 10 μM. 72 hours later, the activities of the compounds were determined using WST-1 reagent.

[4] = GST-BRD4 (BD1+BD2) / biotinylated acetyl-histone H4 (Lys5,8,12,16) peptide, read-out: IC50, BRD4 binding inhibition
[5] = GST-BRD4 (BD1+BD2) vs biotinylated acetyl-histone H4 peptide, AlphaScreen, read-out: BRD4 IC50
[6] = read-out: IC50, cytotoxicity against acute myelogenous leukemia cells
[7] = read-out: MV-4-11 Cytotoxicity IC50
[8] = read-out: IC50, cytotoxicity against thymus cancer cells
[9] = read-out: Ty-82 Cytotoxicity IC50

Row | Compound | IC50 [1, 4] [µM] | IC50 [1, 5] [µM] | IC50 [2, 6] [µM] | IC50 [2, 7] [µM] | IC50 [3, 8] [µM] | IC50 [3, 9] [µM] | IC50 ([1]; IC50, BRD4 binding inhibition, GST-BRD4 (BD1+BD2) / biotinylated acetyl-histone H4 (Lys5,8,12,16) peptide) [µM]
1 | COc1cc2nc(NCCCCNC(=O)OCC(C)C)c3nnc(C)n3c2cc1OC [Example 62, [4-(7,8-dimethoxy-1-methyl-[1,2,4]triazolo[4,3-a]quinoxaline-4-ylamino)-butyl]-carbamic acid isobutylester] | ≤ 0.01 | 0.007 | ≤ 0.2 | 0.12 | ≤ 0.5 | 0.29 | 
2 | Cc1nnc2c(NCCCCNC(=O)Oc3ccccc3)nc3cc4c(cc3n12)OCCO4 [Example 191, [4-(1-methyl-8,9-dihydro-7,10-dioxa-2,3,5,11b-tetraaza-cyclopenta[a]anthracene-4-ylamino)-butyl]-carbamic acid phenylester] |  | 0.01 | ≤ 0.2 | 0.09 | ≤ 0.5 | 0.31 | ≤ 0.01
3 | Cc1nnc2c(NCCCCNC(=O)c3ccccc3)nc3cc4c(cc3n12)OCCO4 [Example 186, N-[4-(1-methyl-8,9-dihydro-7,10-dioxa-2,3,5,11b-tetraaza-cyclopenta[a]anthracene-4-ylamino)-butyl]-benzamide] | ≤ 0.05 | 0.022 |  | 0.68 | ≤ 0.5 | 0.34 | 
4 | COc1cc2nc(NCCCCNC(=O)Cc3cccs3)c3nnc(C)n3c2cc1OC [Example 84, N-[4-(7,8-dimethoxy-1-methyl-[1,2,4]triazolo[4,3-a]quinoxaline-4-ylamino)-butyl]-2-thiophene-2-yl-acetamide] | ≤ 0.05 | 0.014 | ≤ 0.2 | 0.01 | ≤ 0.5 | 0.027 | 
5 | COc1c(C)ccc2c1nc(NCCCCNC(=O)CC(C)C)c1nnc(C)n12 [Example 135, N-[4-(6-methoxy-1,7-dimethyl-[1,2,4]triazolo[4,3-a]quinoxaline-4-ylamino)-butyl]-3-methyl-butyramide] |  | 0.061 |  | 0.36 |  | 0.73 | 
6 | COc1cc2nc(NCCCCNC(=O)CC(C)(C)C)c3nnc(C)n3c2cc1OC [Example 75, N-[4-(7,8-dimethoxy-1-methyl-[1,2,4]triazolo[4,3-a]quinoxaline-4-ylamino)-butyl]-3,3-dimethyl-butyramide] | ≤ 0.05 | 0.028 |  | 0.34 |  | 0.79 | 
7 | Cc1nnc2c(NCCCCNC(=O)NC(C)C)nc3cc4c(cc3n12)OCCO4 [Example 192, 1-isopropyl-3-[4-(1-methyl-8,9-dihydro-7,10-dioxa-2,3,5,11b-tetraaza-cyclopenta[a]anthracene-4-ylamino)-butyl]-urea] | ≤ 0.05 | 0.034 |  | 0.42 |  | 0.68 | 
8 | COc1cc2nc(NCCCCNC(=O)OC(C)(C)C)c3nnc(C)n3c2cc1OC [Example 57, [4-(7,8-dimethoxy-1-methyl-[1,2,4]triazolo[4,3-a]quinoxaline-4-ylamino)-butyl]-carbamic acid-tert-butylester] | ≤ 0.05 | 0.02 |  | 0.76 |  | 0.74 | 
9 | COc1cc2nc(NCCCCNC(=O)NC(C)C)c3nnc(C)n3c2cc1OC [Example 90] |  | 0.063 |  | 0.3 | ≤ 0.5 | 0.4 | 
10 | COc1ccc2c(c1)nc(NCCCCNC(=O)OCC(C)C)c1nnc(C)n12 [Example 279, [4-(7-methoxy-1-methyl-[1,2,4]triazolo[4,3-a]quinoxaline-4-ylamino)-butyl]-carbamic acid isobutylester] | ≤ 0.05 | 0.018 | ≤ 0.2 | 0.14 | ≤ 0.5 | 0.12 | 
11 | COc1ccc2c(c1)nc(NCCCCNC(=O)OC(C)C)c1nnc(C)n12 [Example 278, [4-(7-methoxy-1-methyl-[1,2,4]triazolo[4,3-a]quinoxaline-4-ylamino)-butyl]-carbamic acid isopropylester] |  | 0.051 | ≤ 0.2 | 0.16 | ≤ 0.5 | 0.18 | 
12 | COCCOc1cc2nc(NCCCCNC(=O)OC(C)C)c3nnc(C)n3c2cc1OCCOC [Example 165, {4-[7,8-bis-(2-methoxy-ethoxy)-1-methyl-[1,2,4]triazolo[4,3-a]quinoxaline-4-ylamino]-butyl}-carbamic acid isopropylester] | ≤ 0.05 | 0.026 |  | 0.22 |  | 0.58 | 
13 | COCCOc1cc2nc(NCCCCNC(=O)CC(C)C)c3nnc(C)n3c2cc1OCCOC [Example 166, N-{4-[7,8-bis-(2-methoxy-ethoxy)-1-methyl-[1,2,4]triazolo[4,3-a]quinoxaline-4-ylamino]-butyl}-3-methyl-butyramide] | ≤ 0.05 | 0.02 | ≤ 0.2 | 0.07 |  | 0.58 | 
14 | COc1cc(C)c2nc(NCCCCNC(=O)OC(C)C)c3nnc(C)n3c2c1 [Example 161, [4-(8-methoxy-1,6-dimethyl-[1,2,4]triazolo[4,3-a]quinoxaline-4-ylamino)-butyl]-carbamic acid isopropylester] | ≤ 0.01 |  | ≤ 0.2 | 0.08 |  | 0.81 | 
15 | COc1cc2nc(NCCCCNC(=O)NC(C)(C)C)c3nnc(C)n3c2cc1OC [Example 88, 1-tert-butyl-3-[4-(7,8-dimethoxy-1-methyl-[1,2,4]triazolo[4,3-a]quinoxaline-4-ylamino)-butyl]-urea] | ≤ 0.05 | 0.018 |  | 0.51 |  | 0.97 | 
16 | COc1cc2nc(NCCCCNC(=O)OC3CCCC3)c3nnc(C)n3c2cc1OC [Example 66, [4-(7,8-dimethoxy-1-methyl-[1,2,4]triazolo[4,3-a]quinoxaline-4-ylamino)-butyl]-carbamic acid cyclopentyl-ester] | ≤ 0.05 | 0.013 | ≤ 0.2 | 0.11 | ≤ 0.5 | 0.058 | 
17 | COc1cc2nc(NCCCCNC(=O)C(C)(C)C)c3nnc(C)n3c2cc1OC [Example 59, N-[4-(7,8-dimethoxy-1-methyl-[1,2,4]triazolo[4,3-a]quinoxaline-4-ylamino)-butyl]-2,2-dimethyl-propionamide] | ≤ 0.05 | 0.034 |  | 0.31 | ≤ 0.5 | 0.42 | 
18 | COc1cc2nc(NCCCCNC(=O)OC(C)C)c3nnc(C)n3c2cc1C [Example 467, [4-(7-methoxy-1,8-dimethyl-[1,2,4]triazolo[4,3-a]quinoxaline-4-ylamino)-butyl]-carbamic acid isopropylester] | ≤ 0.05 | 0.023 | ≤ 0.2 | 0.066 | ≤ 0.5 | 0.2 | 
19 | COc1cc2nc(NCCCCNC(=O)c3ccc(C)nc3Cl)c3nnc(C)n3c2cc1OC [Example 108, 2-chloro-N-[4-(7,8-dimethoxy-1-methyl-[1,2,4]triazolo[4,3-a]quinoxaline-4-ylamino)-butyl]-6-methyl-nicotinamide] | ≤ 0.05 | 0.017 |  | 0.51 | ≤ 0.5 | 0.37 | 
20 | COc1cc2nc(NCCCCNC(=O)CC(C)C)c3nnc(C)n3c2cc1C [Example 469, N-[4-(7-methoxy-1,8-dimethyl-[1,2,4]triazolo[4,3-a]quinoxaline-4-ylamino)-butyl]-3-methyl-butyramide] |  | 0.055 | ≤ 0.2 | 0.01 | ≤ 0.5 | 0.094 | 
21 | CCC(C)C(=O)NCCCCNc1nc2cc(OC)c(OC)cc2n2c(C)nnc12 (centres unmarked) [Example 77, N-[4-(7,8-dimethoxy-1-methyl-[1,2,4]triazolo[4,3-a]quinoxaline-4-ylamino)-butyl]-2-methyl-butyramide] | ≤ 0.05 | 0.022 | ≤ 0.2 | 0.15 |  | 0.92 | 
22 | COc1cc2nc(NCCCCNC(=O)CC(C)C)c3nnc(C)n3c2cc1OC [Example 74, N-[4-(7,8-dimethoxy-1-methyl-[1,2,4]triazolo[4,3-a]quinoxaline-4-ylamino)-butyl]-3-methyl-butyramide] | ≤ 0.05 | 0.028 | ≤ 0.2 | 0.11 | ≤ 0.5 | 0.17 | 
23 | Cc1nnc2c(NCCCCNC(=O)c3ccccc3)nc3ccccc3n12 [Example 11, N-[4-(1-methyl-[1,2,4]triazolo[4,3-a]quinoxaline-4-ylamino)-butyl]-benzamide] |  |  |  | 0.71 |  | 0.95 | 
24 | C=CCOC(=O)NCCCCNc1nc2cc(OC)c(OC)cc2n2c(C)nnc12 [Example 65, [4-(7,8-dimethoxy-1-methyl-[1,2,4]triazolo[4,3-a]quinoxaline-4-ylamino)-butyl]-carbamic acid allylester] | ≤ 0.05 | 0.022 | ≤ 0.2 | 0.13 | ≤ 0.5 | 0.37 | 
25 | COc1cc2nc(NCCCCNC(=O)OC(C)C)c3nnc(C)n3c2cc1OC [Example 60, [4-(7,8-dimethoxy-1-methyl-[1,2,4]triazolo[4,3-a]quinoxaline-4-ylamino)-butyl]-carbamic acid isopropylester] | ≤ 0.05 | 0.012 | ≤ 0.2 | 0.01 | ≤ 0.5 | 0.12 | 
